According to ChEMBL document CHEMBL1201862, “PubChem BioAssay data set” (2004):
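48-hour exposure; five concentrations; linearly interpolated endpoints. At the GI50, growth is halved.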 Calls of active or inactive are those of the source. Cut-off read from the data, not from the text of the source: active = GI50 up to about 1.1 µM and inactive = higher.

Tests used:
Experiment in all cases: NCI anticancer screen, dose series, 48 h
786-0 = system: 786-0
A498 = system: A498
A549 = system: A549
ACHN = system: ACHN
BT-549 = system: BT-549
CAKI-1 = system: CAKI-1
CCRF-CEM = system: CCRF-CEM
EKVX = system: EKVX
HCC 2998 = system: HCC 2998
HCT-116 = system: HCT-116
HCT-15 = system: HCT-15
HL-60 = system: HL-60
HOP-62 = system: HOP-62
HOP-92 = system: HOP-92
HT-29 = system: HT-29
Hs-578T = system: Hs-578T
IGROV-1 = system: IGROV-1
K562 = system: K562
KM12 = system: KM12
LOX IMVI = system: LOX IMVI
M14 = system: M14
MCF7 = system: MCF7
MDA-MB-435 = system: MDA-MB-435
MDA-N = system: MDA-N
MOLT-4 = system: MOLT-4
Malme-3M = system: Malme-3M
NCI-H226 = system: NCI-H226
NCI-H23 = system: NCI-H23
NCI-H460 = system: NCI-H460
NCI-H522 = system: NCI-H522
NCI/ADR-RES = system: NCI/ADR-RES
OVCAR-3 = system: OVCAR-3
OVCAR-4 = system: OVCAR-4
OVCAR-5 = system: OVCAR-5
OVCAR-8 = system: OVCAR-8
PC-3 = system: PC-3
RPMI-8226 = system: RPMI-8226
RXF 393 = system: RXF 393
SF-268 = system: SF-268
SF-295 = system: SF-295
SF-539 = system: SF-539
SK-MEL-28 = system: SK-MEL-28
SK-MEL-2 = system: SK-MEL-2
SK-OV-3 = system: SK-OV-3
SN12C = system: SN12C
SNB-19 = system: SNB-19
SNB-75 = system: SNB-75
SW-620 = system: SW-620
TK-10 = system: TK-10
U-251 = system: U-251
UACC-257 = system: UACC-257
UACC-62 = system: UACC-62
UO-31 = system: UO-31
COLO 205 = system: COLO 205
DU-145 = system: DU-145
SK-MEL-5 = system: SK-MEL-5
SR = system: SR
T47D = system: T47D
MDA-MB-231 = system: MDA-MB-231

Structure (SMILES): Oc1cc(O)c2ccc(-c3ccc(O)c(O)c3)[o+]c2c1
- GI50 (786-0): > 100 µM (inactive)
- GI50 (A498): > 100 µM (inactive)
- GI50 (A549): > 100 µM (inactive)
- GI50 (ACHN): > 100 µM (inactive)
- GI50 (BT-549): 39.9 µM (inactive)
- GI50 (CAKI-1): > 100 µM (inactive)
- GI50 (CCRF-CEM): 67.9 µM (inactive)
- GI50 (EKVX): > 100 µM (inactive)
- GI50 (HCC 2998): > 100 µM (inactive)
- GI50 (HCT-116): > 100 µM (inactive)
- GI50 (HCT-15): > 100 µM
- GI50 (HL-60): > 100 µM (inactive)
- GI50 (HOP-62): > 100 µM (inactive)
- GI50 (HOP-92): > 100 µM (inactive)
- GI50 (HT-29): > 100 µM (inactive)
- GI50 (Hs-578T): > 100 µM (inactive)
- GI50 (IGROV-1): > 100 µM (inactive)
- GI50 (K562): > 100 µM (inactive)
- GI50 (KM12): > 100 µM (inactive)
- GI50 (LOX IMVI): > 100 µM (inactive)
- GI50 (M14): > 100 µM (inactive)
- GI50 (MCF7): > 100 µM (inactive)
- GI50 (MDA-MB-435): > 100 µM (inactive)
- GI50 (MDA-N): > 100 µM (inactive)
- GI50 (MOLT-4): > 100 µM (inactive)
- GI50 (Malme-3M): > 100 µM (inactive)
- GI50 (NCI-H226): > 100 µM (inactive)
- GI50 (NCI-H23): > 100 µM (inactive)
- GI50 (NCI-H460): > 100 µM (inactive)
- GI50 (NCI-H522): > 100 µM (inactive)
- GI50 (NCI/ADR-RES): > 100 µM (inactive)
- GI50 (OVCAR-3): > 100 µM (inactive)
- GI50 (OVCAR-4): > 100 µM (inactive)
- GI50 (OVCAR-5): > 100 µM (inactive)
- GI50 (OVCAR-8): > 100 µM (inactive)
- GI50 (PC-3): > 100 µM (inactive)
- GI50 (RPMI-8226): 84.9 µM (inactive)
- GI50 (RXF 393): 63.8 µM (inactive)
- GI50 (SF-268): > 100 µM (inactive)
- GI50 (SF-295): > 10 µM (inactive)
- GI50 (SF-539): > 100 µM (inactive)
- GI50 (SK-MEL-28): > 100 µM (inactive)
- GI50 (SK-MEL-2): > 100 µM (inactive)
- GI50 (SK-OV-3): > 100 µM (inactive)
- GI50 (SN12C): > 100 µM (inactive)
- GI50 (SNB-19): > 100 µM (inactive)
- GI50 (SNB-75): > 100 µM (inactive)
- GI50 (SW-620): > 100 µM (inactive)
- GI50 (TK-10): > 100 µM (inactive)
- GI50 (U-251): > 100 µM (inactive)
- GI50 (UACC-257): > 100 µM (inactive)
- GI50 (UACC-62): > 100 µM (inactive)
- GI50 (UO-31): > 100 µM (inactive)

Structure (SMILES): Oc1ccc(-c2nc3cc(F)ccc3s2)cc1
- GI50 (786-0): 28.6 µM (inactive)
- GI50 (A549): 18.4 µM (inactive)
- GI50 (ACHN): 20.3 µM (inactive)
- GI50 (BT-549): 20 µM (inactive)
- GI50 (CAKI-1): 23.7 µM (inactive)
- GI50 (CCRF-CEM): 43.8 µM (inactive)
- GI50 (COLO 205): 18.6 µM (inactive)
- GI50 (DU-145): 21.8 µM (inactive)
- GI50 (EKVX): 13.2 µM (inactive)
- GI50 (HCC 2998): 13.5 µM (inactive)
- GI50 (HCT-116): 17.5 µM (inactive)
- GI50 (HCT-15): 23.6 µM
- GI50 (HL-60): 21.7 µM (inactive)
- GI50 (HOP-62): 24.7 µM (inactive)
- GI50 (HOP-92): 21.3 µM (inactive)
- GI50 (HT-29): 23.3 µM (inactive)
- GI50 (IGROV-1): 17.5 µM (inactive)
- GI50 (K562): 22.6 µM (inactive)
- GI50 (KM12): 20.5 µM (inactive)
- GI50 (LOX IMVI): 17.9 µM (inactive)
- GI50 (M14): 20 µM (inactive)
- GI50 (MCF7): 1.14 µM (inactive)
- GI50 (MDA-MB-435): 20 µM (inactive)
- GI50 (MDA-N): 28.4 µM (inactive)
- GI50 (MOLT-4): 10.4 µM (inactive)
- GI50 (Malme-3M): 16.5 µM (inactive)
- GI50 (NCI-H226): 17.3 µM (inactive)
- GI50 (NCI-H23): 32.3 µM (inactive)
- GI50 (NCI-H460): 19.3 µM (inactive)
- GI50 (NCI-H522): 15.3 µM (inactive)
- GI50 (NCI/ADR-RES): 20 µM (inactive)
- GI50 (OVCAR-3): 19.2 µM (inactive)
- GI50 (OVCAR-4): 13.6 µM (inactive)
- GI50 (OVCAR-5): 23.1 µM (inactive)
- GI50 (OVCAR-8): 31.6 µM (inactive)
- GI50 (PC-3): 22.9 µM (inactive)
- GI50 (RPMI-8226): 24 µM (inactive)
- GI50 (RXF 393): 27.4 µM (inactive)
- GI50 (SF-268): 26.7 µM (inactive)
- GI50 (SF-295): 19.6 µM (inactive)
- GI50 (SK-MEL-28): 21.6 µM (inactive)
- GI50 (SK-MEL-2): 19.1 µM (inactive)
- GI50 (SK-MEL-5): 19.5 µM (inactive)
- GI50 (SK-OV-3): 25.7 µM (inactive)
- GI50 (SN12C): 22.2 µM (inactive)
- GI50 (SNB-19): 36.7 µM (inactive)
- GI50 (SR): 2.38 µM (inactive)
- GI50 (SW-620): 41.5 µM (inactive)
- GI50 (T47D): 5.22 µM (inactive)
- GI50 (TK-10): 34.1 µM (inactive)
- GI50 (U-251): 19.9 µM (inactive)
- GI50 (UACC-257): 27.4 µM (inactive)
- GI50 (UACC-62): 17.5 µM (inactive)
- GI50 (UO-31): 19.3 µM (inactive)

Structure (SMILES): O=C(COc1ccc(OCC(=O)NNC2=NC(c3cc(F)c(Cl)cc3Cl)CS2)c(Cl)c1)NNC1=NC(c2cc(F)c(Cl)cc2Cl)CS1 (centres undefined)
- GI50 (786-0): 60.4 µM (inactive)
- GI50 (A498): 23.7 µM (inactive)
- GI50 (A549): 14.3 µM (inactive)
- GI50 (ACHN): 38.5 µM (inactive)
- GI50 (BT-549): 24.1 µM (inactive)
- GI50 (CCRF-CEM): 28.6 µM (inactive)
- GI50 (COLO 205): 34.2 µM (inactive)
- GI50 (DU-145): 22.8 µM (inactive)
- GI50 (EKVX): 20.8 µM (inactive)
- GI50 (HCT-116): 31.5 µM (inactive)
- GI50 (HCT-15): 16.7 µM
- GI50 (HL-60): 38.1 µM (inactive)
- GI50 (HOP-62): > 100 µM (inactive)
- GI50 (HOP-92): 21.6 µM (inactive)
- GI50 (HT-29): 25.6 µM (inactive)
- GI50 (Hs-578T): 20.6 µM (inactive)
- GI50 (IGROV-1): 20.1 µM (inactive)
- GI50 (K562): 24 µM (inactive)
- GI50 (KM12): 44.4 µM (inactive)
- GI50 (LOX IMVI): 1.04 µM (active)
- GI50 (M14): 74 µM (inactive)
- GI50 (MCF7): 14 µM (inactive)
- GI50 (MDA-MB-231): 20 µM (inactive)
- GI50 (MDA-MB-435): 16.7 µM (inactive)
- GI50 (MDA-N): 28.4 µM (inactive)
- GI50 (MOLT-4): 26.2 µM (inactive)
- GI50 (Malme-3M): > 100 µM (inactive)
- GI50 (NCI-H226): 19.1 µM (inactive)
- GI50 (NCI-H23): 20.2 µM (inactive)
- GI50 (NCI-H460): 29.9 µM (inactive)
- GI50 (NCI-H522): 14.2 µM (inactive)
- GI50 (NCI/ADR-RES): 44.8 µM (inactive)
- GI50 (OVCAR-4): 14.7 µM (inactive)
- GI50 (OVCAR-5): 36.7 µM (inactive)
- GI50 (OVCAR-8): 20.8 µM (inactive)
- GI50 (PC-3): 22.1 µM (inactive)
- GI50 (RPMI-8226): 20 µM (inactive)
- GI50 (RXF 393): 19.8 µM (inactive)
- GI50 (SF-295): 19.8 µM (inactive)
- GI50 (SF-539): 28.6 µM (inactive)
- GI50 (SK-MEL-28): 29.5 µM (inactive)
- GI50 (SK-MEL-2): 36.2 µM (inactive)
- GI50 (SK-OV-3): > 100 µM (inactive)
- GI50 (SN12C): 20.7 µM (inactive)
- GI50 (SNB-19): 42.5 µM (inactive)
- GI50 (SR): 35.9 µM (inactive)
- GI50 (SW-620): 30.6 µM (inactive)
- GI50 (TK-10): 25.8 µM (inactive)
- GI50 (U-251): 14.4 µM (inactive)
- GI50 (UACC-257): 48 µM (inactive)
- GI50 (UACC-62): 18.6 µM (inactive)
- GI50 (UO-31): > 100 µM (inactive)
